Measured values as given in patent publication US7981918B2, “Cyclohexylpyrazole-lactam derivatives as inhibitors of 11-beta-hydroxysteroid dehydrogenase 1” (Eli Lilly and Company, priority 2006, dated 2011).

Key:
[1] = target: recombinant human 11β-HSD type 1 enzyme (Homo sapiens, UniProt P28845); assay: 11β-HSD Type 1 Enzyme Assay (NADPH fluorescence); assay type: biochemical; details: three hour incubation at room temperature, read-out: Human 11-βHSD1 IC50
Protocol: 11β-HSD Type 1 Enzyme Assay
Human 11β-HSD type 1 activity is measured by assaying NADPH production by fluorescence assay. Solid compounds are dissolved in DMSO to a concentration of 10 mM. Twenty microliters of each are then transferred to a column of a 96-well polypropylene Nunc plate where they are further diluted 50-fold followed by subsequent two-fold titration, ten times across the plate with additional DMSO using a Tecan Genesis 200 automated system. Plates are then transferred to a Tecan Freedom 200 system with an attached Tecan Temo 96-well head and an Ultra 384 plate reader. Reagents are supplied in 96-well polypropylene Nunc plates and are dispensed individually into black 96-well Molecular Devices High Efficiency assay plates (40 μL/well capacity) in the following fashion: 9 μL/well of substrate (2.22 mM NADP, 55.5 μM Cortisol, 10 mM Tris, 0.25% Prionex, 0.1% Triton X100), 3 μL/well of water to compound wells or 3 μL to control and standard wells, 6 μL/well recombinant human 11β-HSD type 1 enzyme, 2 μL/well of compound dilutions. For ultimate calculation of percent inhibition, a series of wells are added that represent assay minimum and maximum: one set containing substrate with 667 μM carbenoxolone (background), and another set containing substrate and enzyme without compound (maximum signal). Final DMSO concentration is 0.5% for all compounds, controls and standards. Plates are then placed on a shaker by the robotic arm of the Tecan for 15 seconds before being covered and stacked for a three hour incubation period at room temperature. Upon completion of this incubation, the Tecan robotic arm removes each plate individually from the stacker and places them in position for addition of 5 μL/well of a 250 μM carbenoxolone solution to stop the enzymatic reaction. Plates are then shaken once more for 15 seconds then placed into an Ultra 384 microplate reader (355EX/460EM) for detection of NADPH fluorescence.

11β-HSD1 = target: T1, 11β-HSD1 (Homo sapiens, UniProt P28845); assay: Human Aortic Smooth Muscle Cell Assay (cortisone to cortisol); assay type: cell-based; details: primary human aortic smooth muscle cells (AoSMC), hTNFα-induced 11β-HSD1, cortisol by immunoassay
T1 construct: containing 12 ng/mL hTNFα to induce expression of 11β-HSD1; endogenous in cells; host or cells: primary human aortic smooth muscle cells (AoSMC), induced with hTNFα
Protocol: Human Aortic Smooth Muscle Cell Assay
Primary human aortic smooth muscle cells (AoSMC) are cultured in 5% FBS growth medium to a passage number of 6, then pelleted by centrifugation and resuspended at a density of 9×10^4 cells/mL in 0.5% FBS assay medium containing 12 ng/mL hTNFα to induce expression of 11β-HSD1. Cells are seeded into 96-well tissue culture assay plates at 100 μL/well (9×10^3 cells/well) and incubated for 48 hours at 37° C., 5% CO2. Following induction, cells are incubated for 4 hours at 37° C., 5% CO2 in assay medium containing test compounds then treated with 10 μL/well of 10 μM cortisone solubilized in assay medium, and incubated for 16 hours at 37° C., 5% CO2. Medium from each well is transferred to a plate for subsequent analysis of cortisol using a competitive fluorescence resonance time resolved immunoassay. In solution, an allophycocyanin (APC)-cortisol conjugate and free cortisol analyte compete for binding to a mouse anti-cortisol antibody/Europium (Eu)-anti mouse IgG complex. Higher levels of free cortisol result in diminishing energy transfer from the Europium-IgG to the APC-cortisol complex resulting in less APC fluorescence. Fluorescent intensities for Europium and APC are measured using a LJL Analyst AD. Europium and APC excitation is measured using 360 nm excitation and 615 nm and 650 nm emission filters respectively. Time resolved parameters for Europuium were 1000 μs integration time with a 200 μs delay. APC parameters are set at 150 μs integration time with a 50 μs delay. Fluorescent intensities measured for APC are modified by dividing by the Eu fluorescence (APC/Eu). This ratio is then used to determine the unknown cortisol concentration by interpolation using a cortisol standard curve fitted with a 4-parameter logistic equation. These concentrations are then used to determine compound activity by plotting concentration versus % inhibition, fitting with a 4-parameter curve and reporting the IC50.

11-βHSD2 enzyme = target: T2, 11-βHSD2 enzyme (Homo sapiens, UniProt P80365); assay: Selectivity assay using the 11-βHSD2 enzyme; assay type: biochemical; details: selectivity 11-βHSD1 over 11-βHSD2
T2 sequence (P80365 1-405): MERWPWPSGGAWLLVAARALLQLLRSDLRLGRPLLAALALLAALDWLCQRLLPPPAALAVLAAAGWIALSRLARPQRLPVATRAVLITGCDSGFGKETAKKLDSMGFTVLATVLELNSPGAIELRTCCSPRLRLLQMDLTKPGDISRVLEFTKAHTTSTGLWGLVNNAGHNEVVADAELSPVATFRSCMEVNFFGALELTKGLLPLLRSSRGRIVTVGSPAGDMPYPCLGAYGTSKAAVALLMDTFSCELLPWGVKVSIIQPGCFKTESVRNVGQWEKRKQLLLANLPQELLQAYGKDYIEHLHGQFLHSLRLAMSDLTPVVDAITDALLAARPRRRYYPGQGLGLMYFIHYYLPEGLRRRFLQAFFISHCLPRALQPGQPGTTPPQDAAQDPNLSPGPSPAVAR
Description: Compounds of the invention can also tested for selectivity against 11-βHSD2 in an assay similar to that described for 11-βHSD1, but using the 11-βHSD2 enzyme. The assay using the 11-βHSD2 enzyme can be carried out by the methods described herein and supplemented by methods known in the art.

cortisone conversion = assay: Acute In Vivo Cortisone Conversion Assay; parameters: species or system mice (male C57BL/6); details: Mus musculus; mice, oral dose of 10 mg/kg, cortisone challenge after 16 hours, serum cortisol
Protocol: Acute In Vivo Cortisone Conversion Assay
In general, compounds are dosed orally into mice, the mice are challenged with a subcutaneous injection of cortisone at a set timepoint after compound injection, and the blood of each animal is collected some time later. Separated serum is then isolated and analyzed for levels of cortisone and cortisol by LC-MS/MS, followed by calculation of mean cortisol and percent inhibition of each dosing group. Specifically, male C57BL/6 mice are obtained from Harlan Sprague Dawley at average weight of 25 grams. Exact weights are taken upon arrival and the mice randomized into groups of similar weights. Compounds are prepared in 1% w-w HEC, 0.25% w-w polysorbate 80, 0.05% w-w Dow Corning antifoam #1510-US at various doses based on assumed average weight of 25 grams. Compounds are dosed orally, 200 μl per animal, followed by a subcutaneous dose, 200 μl per animal, of 30 mg/kg cortisone at 1 to 24 hours post compound dose. At 10 minutes post cortisone challenge, each animal is euthanized for 1 minute in a CO2 chamber, followed by blood collection via cardiac puncture into serum separator tubes. Once fully clotted, tubes are spun at 2500×g, 4° C. for 15 minutes, the serum transferred to wells of 96-well plates (Corning Inc, Costar #4410, cluster tubes, 1.2 ml, polypropylene), and the plates are frozen at −20° C. until analysis by LC-MS/MS. For analysis, serum samples are thawed and the proteins are precipitated by the addition of acetonitrile containing d4-cortisol internal standard. Samples are vortex mixed and centrifuged. The supernatant is removed and dried under a stream of warm nitrogen. Extracts are reconstituted in methanol/water (1:1) and injected onto the LC-MS/MS system. The levels of cortisone and cortisol are assayed by selective reaction monitoring mode following positive ACPI ionization on a triple quadrupole mass spectrophotometer.

T1 sequence (P28845 whole entry): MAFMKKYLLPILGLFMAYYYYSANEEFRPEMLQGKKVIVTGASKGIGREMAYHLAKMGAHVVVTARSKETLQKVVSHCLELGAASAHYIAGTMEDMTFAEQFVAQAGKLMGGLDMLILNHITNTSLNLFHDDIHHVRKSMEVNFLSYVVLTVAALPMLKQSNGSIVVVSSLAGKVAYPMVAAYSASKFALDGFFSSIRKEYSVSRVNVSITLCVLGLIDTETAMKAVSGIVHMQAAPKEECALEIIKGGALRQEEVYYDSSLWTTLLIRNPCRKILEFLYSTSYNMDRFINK
recombinant human 11β-HSD type 1 enzyme, sequence (P28845 whole entry): as above

Row | Structure (SMILES) | IC50 [1] [nM] | IC50 (11β-HSD1) [nM] | inhibition at 10 mg/kg (cortisone conversion) [%] | also measured
1 | COc1cc(Cl)c(CC2CCN(C3CCc4n[nH]cc4C3)C2=O)c(Cl)c1 (racemic) [Example 1, 3-(2,6-Dichloro-4-methoxy-benzyl)-1-(4,5,6,7-tetrahydro-2H-indazol-5-yl)-pyrrolidin-2-one] | 100 | – | – | –
2 | COc1cc(Cl)c(CC2CCN(C3CCc4n[nH]cc4C3)C2=O)c(Cl)c1 (single isomer, unassigned) [Example 7, 3-(2,6-Dichloro-4-methoxy-benzyl)-1-(4,5,6,7-tetrahydro-2H-indazol-5-yl)-pyrrolidin-2-one] | 37 | – | – | –
3 | O=C(c1ccc(-c2cc(Cl)c(C[C@@H]3CCN(C4CCc5n[nH]cc5C4)C3=O)c(Cl)c2)cc1)N1CCOCC1 (some centres unmarked) [Example 41] | – | – | 84 | –
4 | O=C1[C@H](Cc2c(Cl)cc(-c3ccc(F)nc3)cc2Cl)CCN1C1CCc2n[nH]cc2C1 (some centres unmarked) [Example 44] | – | – | 92 | –

More lines, main results first:

Row | IC50 [1] [nM] | IC50 (11β-HSD1) [nM] | Structure (SMILES) | inhibition at 10 mg/kg (cortisone conversion) [%] | also measured
5 | – | 24 | Cn1cc(-c2ccc(CC3CCN(C4CCc5n[nH]cc5C4)C3=O)c(Cl)c2)cn1 (centres unmarked) [Example 11, 3-[2-Chloro-4-(1-methyl-1H-pyrazol-4-yl)-benzyl]-1-(4,5,6,7-tetrahydro-2H-indazol-5-yl)-pyrrolidin-2-one] | – | –
6 | – | 2 | O=C1C(Cc2c(Cl)cc(-c3ccccc3)cc2Cl)CCN1C1CCc2n[nH]cc2C1 (centres unmarked) [Example 20] | – | –
7 | 243 | – | O=C1[C@H](Cc2c(Cl)cc(OCc3ccccc3)cc2Cl)CCN1[C@H]1CCc2n[nH]cc2C1 [Example 35, (3R,5S)-3-(4-Benzyloxy-2,6-dichloro-benzyl)-1-(4,5,6,7-tetrahydro-2H-indazol-5-yl)-pyrrolidin-2-one] | – | –
8 | 276 | 0.4 | O=C1[C@H](Cc2c(Cl)cc(-c3ccc(F)cc3)cc2Cl)CCN1[C@H]1CCc2n[nH]cc2C1 [Example 36, (3R-5S)-(−)-3-(3,5-Dichloro-4′-fluoro-biphenyl-4-ylmethyl)-1-(4,5,6,7-tetrahydro-2H-indazol-5-yl)-pyrrolidin-2-one] | 95 | fold greater inhibition of 11-βHSD1 enzyme as compared to the inhibition of 11-βHSD2 (11-βHSD2 enzyme): 535 fold
